Measured values taken from article PMC8972196, “A Set of Experimentally Validated Decoys for the Human CC Chemokine Receptor 7 (CCR7) Obtained by Virtual Screening” (Frontiers in Pharmacology, 2022).
Read-outs that look alike come from different tables or passages of the source.

Target: T1, human CCR7 (Homo sapiens, UniProt P32248)
T1 construct: expressed in transfected cells
T1 sequence (P32248 25-378): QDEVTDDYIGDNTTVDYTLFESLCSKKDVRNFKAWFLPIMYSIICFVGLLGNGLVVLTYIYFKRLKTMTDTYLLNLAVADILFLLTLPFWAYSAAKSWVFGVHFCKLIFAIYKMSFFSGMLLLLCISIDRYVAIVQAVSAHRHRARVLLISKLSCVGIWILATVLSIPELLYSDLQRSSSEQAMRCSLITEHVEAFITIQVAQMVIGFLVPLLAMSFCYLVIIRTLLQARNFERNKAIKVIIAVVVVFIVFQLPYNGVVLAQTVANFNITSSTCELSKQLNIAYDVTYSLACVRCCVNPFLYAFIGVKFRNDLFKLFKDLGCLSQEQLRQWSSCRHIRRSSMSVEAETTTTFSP
Assay: CCL19-induced calcium mobilization assay, U87.CD4 cells expressing CCR7
Format: cell-based
Conditions: for IC50: read-out: IC50 [μM] block CCL19 induced calcium signaling
Method: U87.CD4 cells that stably express either human CCR7, CXCR2, CCR5 or CXCR4 were seeded (20,000 cells/well) in gelatin-coated black-walled polystyrene 96-well plates with clear bottom and incubated overnight at 37°C and 5% CO2. […] Culture medium was removed, and cells were incubated for 45 min at room temperature in the dark. […] Exactly the same protocol was used to record calcium responses in Chinese hamster ovary (CHO)-K1 cells, upon stimulation with adenosine triphosphate (ATP, purchased from Sigma).

[1] = CCL19 induced calcium signaling
[2] = classification as decoy or active on CCR7
[3] = CCL19-induced calcium signaling
[4] = classification of tested compounds as decoy or active

Row | IC50 [1] [µM] | Decoy – 0 Active – 1 [2] | IC50 [3] [µM] | Decoy – 0 Active – 1 [4] | SMILES
1 | > 50 | 0 | – | – | Cc1nc[nH]c1C(=O)NC1CC(=O)N(Cc2ccccc2Cl)C1 (stereo not shown) [C274, Cc1nc[nH]c1C(=O)NC1CC(=O)N(Cc2ccccc2Cl)C1]
2 | – | – | > 50 | 0 | COC(=O)c1ccccc1Nc1c(NCC2CC2)c(=O)c1=O [C016, COC(=O)c1ccccc1Nc1c(NCC2CC2)c(=O)c1=O]
3 | > 50 | 0 | – | – | NC(=O)Nc1cccc(C(=O)NCc2ccccc2Cl)c1 [C173, NC(=O)Nc1cccc(C(=O)NCc2ccccc2Cl)c1]
4 | – | – | > 10 | 0 | NC(=O)c1cc(NCC(=O)NCc2ccco2)ccc1Cl [C067, NC(=O)c1cc(NCC(=O)NCc2ccco2)ccc1Cl]
5 | > 50 | 0 | – | – | O=C(NCC(O)(c1ccccc1)C(F)(F)F)c1cc(=O)c2ccccc2o1 (stereo not shown) [C208, O=C(NCC(O)(c1ccccc1)C(F)(F)F)c1cc(=O)c2ccccc2o1]
6 | – | – | > 50 | 0 | CC[C@@H](NS(=O)(=O)NCc1ccccc1)c1cc(C)ccn1 [C137, CC[C@@H](NS(=O)(=O)NCc1ccccc1)c1cc(C)ccn1]
7 | – | – | > 50 | 0 | Cc1c(C(=O)NCC2CC2)sc2ncnc(NCCc3ccccn3)c12 [C093, Cc1c(C(=O)NCC2CC2)sc2ncnc(NCCc3ccccn3)c12]
8 | > 50 | 0 | – | – | O=C(NCC(=O)N1CCCC1c1ccc2c(c1)OCO2)c1cc2ccccc2[nH]1 (stereo not shown) [C285, O=C(NCC(=O)N1CCCC1c1ccc2c(c1)OCO2)c1cc2ccccc2[nH]1]
9 | > 50 | 0 | – | – | COc1ccccc1NC(=O)CN(c1ccccc1)S(=O)(=O)c1ccc(OC)c(OC)c1 [C235, COc1ccccc1NC(=O)CN(c2ccccc2)S(=O)(=O)c3ccc(c(c3)OC)OC]
10 | > 50 | 0 | – | – | COc1ccc(S(=O)(=O)N(CC(=O)N2CCN(C)CC2)Cc2ccccc2)cc1C [C242, Cc1cc(ccc1OC)S(=O)(=O)N(Cc2ccccc2)CC(=O)N3CC[NH+](CC3)C]
11 | – | – | > 10 | 0 | CN(C)C(=O)c1cccc(NCC(=O)NCC2(c3ccccc3)CCC2)c1 [C052, CN(C)C(=O)c1cccc(NCC(=O)NCC2(c3ccccc3)CCC2)c1]
12 | – | – | > 50 | 0 | COC(=O)c1ccccc1Nc1c(NCc2ccc(OC)cc2)c(=O)c1=O [C011, COC(=O)c1ccccc1Nc1c(NCc2ccc(OC)cc2)c(=O)c1=O]
13 | > 50 | 0 | – | – | CN(Cc1csc(-c2ccccc2)n1)C(=O)c1c[nH]c(=O)c(Cl)c1 [C232, CN(Cc1csc(-c2ccccc2)n1)C(=O)c1c[nH]c(=O)c(Cl)c1]
14 | > 50 | 0 | – | – | Cc1nc[nH]c1C(=O)NC1CC(=O)N(Cc2cccc3ccccc23)C1 (stereo not shown) [C276, Cc1nc[nH]c1C(=O)NC1CC(=O)N(Cc2cccc3ccccc23)C1]
15 | – | – | > 50 | 0 | CC[C@@H](NC(=O)CCn1ccccc1=O)c1cc(F)ccc1F [C132, CC[C@@H](NC(=O)CCn1ccccc1=O)c1cc(F)ccc1F]
16 | – | – | > 50 | 0 | CS(=O)(=O)c1ccc(-c2cccc(NC(=O)[C@H]3CCCO3)c2)nn1 [C101, CS(=O)(=O)c1ccc(-c2cccc(NC(=O)[C@H]3CCCO3)c2)nn1]
17 | – | – | > 50 | 0 | Cn1ccnc1[C@H](NC1=NS(=O)(=O)c2ccccc21)c1cccc(F)c1 [C153, Cn1ccnc1[C@H](NC1=NS(=O)(=O)c2ccccc21)c1cccc(F)c1]
18 | > 50 | 0 | – | – | Cn1c(C2CC(=O)N(c3cccc(C(F)(F)F)c3)C2)nc2ccccc21 (stereo not shown) [C194, Cn1c(C2CC(=O)N(c3cccc(C(F)(F)F)c3)C2)nc2ccccc21]
19 | > 50 | 0 | – | – | CC1CN(S(=O)(=O)c2ccc(CCC(=O)O)cc2)c2ccccc21 (stereo not shown) [C268, CC1CN(c2c1cccc2)S(=O)(=O)c3ccc(cc3)CCC(=O)[O-]]
20 | > 50 | 0 | – | – | CCN1CCCC1C1CCCN1C(=O)CCc1c[nH]c2ccccc12 (stereo not shown) [C282, CCN1CCCC1C1CCCN1C(=O)CCc1c[nH]c2ccccc12]
21 | > 50 | 0 | – | – | COc1cccc(N2CC(NC(=O)c3cccc4ccccc34)CC2=O)c1 (stereo not shown) [C188, COc1cccc(N2CC(NC(=O)c3cccc4ccccc34)CC2=O)c1]
22 | > 50 | 0 | – | – | O=C(NCC1(c2cccc(F)c2)CCCCC1)c1n[nH]c(=O)[nH]1 [C195, O=C(NCC1(c2cccc(F)c2)CCCCC1)c1n[nH]c(=O)[nH]1]
23 | > 50 | 0 | – | – | COc1ccc(O)c(/C=C(\C#N)C(=O)Nc2cccc(Cl)c2Cl)c1 [C164, COc1ccc(O)c(/C=C(\C#N)C(=O)Nc2cccc(Cl)c2Cl)c1]

Second part, the compound before the results:

Row | SMILES | IC50 [1] [µM] | Decoy – 0 Active – 1 [2] | IC50 [3] [µM] | Decoy – 0 Active – 1 [4]
24 | O=S1(=O)N=C(NCCN2CCCC2)C(NCCN2CCCC2)=N1 [C150, O=S1(=O)N=C(NCC[NH+]2CCCC2)C(NCC[NH+]2CCCC2)=N1] | – | – | > 50 | 0
25 | O=C(c1ccnc(N[C@H]2CCCN(Cc3cccnc3)C2)c1)N1CCCC1 [C087, O=C(c1ccnc(N[C@H]2CCC[N@@H+](Cc3cccnc3)C2)c1)N1CCCC1] | – | – | > 50 | 0
26 | Cc1ccc(S(=O)(=O)N(CC(=O)Nc2cccc([N+](=O)[O-])c2)Cc2ccc(F)cc2)cc1 [C236, Cc1ccc(cc1)S(=O)(=O)N(Cc2ccc(cc2)F)CC(=O)Nc3cccc(c3)[N+](=O)[O-]] | > 50 | 0 | – | –
27 | CC[C@H](NC(=O)N(CCO)Cc1ccc(F)cc1)c1nc(C)no1 [C163, CC[C@H](NC(=O)N(CCO)Cc1ccc(F)cc1)c1nc(C)no1] | > 50 | 0 | – | –
28 | COc1ccc(CCNC(=O)CN(c2ccc([N+](=O)[O-])cc2)S(=O)(=O)c2ccccc2)cc1 [C271, COc1ccc(cc1)CCNC(=O)CN(c2ccc(cc2)[N+](=O)[O-])S(=O)(=O)c3ccccc3] | > 50 | 0 | – | –
29 | Cc1cccc(C2(C(=O)NC3CCC(=O)N(C)C3)CCCC2)c1 (stereo not shown) [C220, Cc1cccc(C2(C(=O)NC3CCC(=O)N(C)C3)CCCC2)c1] | > 50 | 0 | – | –
30 | CN(C)CCNc1c(Nc2cc(C(F)(F)F)cc(C(F)(F)F)c2)c(=O)c1=O [C024, O=C1C(NCCN(C)C)=C(NC2=CC(C(F)(F)F)=CC(C(F)(F)F)=C2)C1=O] | – | – | > 50 | 0
31 | O=C(CNc1c(NCc2ccc3c(c2)OCO3)c(=O)c1=O)N1CCCC1 [C010, O=C(CNc1c(NCc2ccc3c(c2)OCO3)c(=O)c1=O)N1CCCC1] | – | – | > 50 | 0
32 | CC(C)(C(=O)NC1CCC(C(=O)O)C1)c1cccc(F)c1 (stereo not shown) [C210, CC(C)(C(=O)NC1CCC(C(=O)[O-])C1)c1cccc(F)c1] | > 50 | 0 | – | –
33 | CC1(C)Cc2nc(C(C)(C)C)ncc2C(NC(=O)c2cc(C(F)(F)F)n[nH]2)C1 (stereo not shown) [C177, CC1(C)Cc2nc(C(C)(C)C)ncc2C(NC(=O)c2cc(C(F)(F)F)n[nH]2)C1] | > 50 | 0 | – | –
34 | CC1CCc2ccccc2C1NC(=O)CCC(=O)N1CCC(O)CC1 (stereo not shown) [C221, CC1CCc2ccccc2C1NC(=O)CCC(=O)N1CCC(O)CC1] | > 50 | 0 | – | –
35 | O=[N+]([O-])c1ccc(C(O)CNC(=S)NCc2ccc3c(c2)OCO3)cc1 (stereo not shown) [C030, OC(CNC(=S)NCc1ccc2OCOc2c1)c1ccc(cc1)[N+]([O-])=O] | – | – | > 30 | 0
36 | FC(F)(F)c1ccccc1NC(=S)Nc1ccc(OCc2ccccc2)cc1 [C035, FC(F)(F)c1ccccc1NC(=S)Nc1ccc(OCc2ccccc2)cc1] | – | – | > 30 | 0
37 | Cc1ccc(NC2=NC(=O)SC2=Cc2ccco2)cc1 [C078, Cc1ccc(NC2=[NH+]C(=O)SC2=Cc2ccco2)cc1] | – | – | > 10 | 0
38 | CCN(Cc1ccc(Cl)cc1)Cc1cc(=O)c2cccc(F)c2[nH]1 [C278, CCN(Cc1ccc(Cl)cc1)Cc1cc(=O)c2cccc(F)c2[nH]1] | > 50 | 0 | – | –
39 | CN(C)[C@@H]1CCCC[C@H]1Nc1c(NCc2cc(C(F)(F)F)cc(C(F)(F)F)c2)c(=O)c1=O [C021, CN(C)[C@@H]1CCCC[C@H]1NC(C2=O)=C(NCC3=CC(C(F)(F)F)=CC(C(F)(F)F)=C3)C2=O] | – | – | > 50 | 0
40 | COc1ccc(N(CC(O)CNCCC(C)C)S(=O)(=O)c2ccc(C)cc2)cc1 (stereo not shown) [C248, Cc1ccc(cc1)S(=O)(=O)N(CC(C[NH2+]CCC(C)C)O)c2ccc(cc2)OC] | > 50 | 0 | – | –
41 | CCC1(C(N)=O)CCCN(C(=O)NCc2c(Cl)cccc2Cl)C1 (stereo not shown) [C165, CCC1(C(N)=O)CCCN(C(=O)NCc2c(Cl)cccc2Cl)C1] | > 50 | 0 | – | –
42 | CC[C@@H](NC(=O)N1CCN(C(=O)c2ccccc2)CC1)c1cccc(C)n1 [C161, CC[C@@H](NC(=O)N1CCN(C(=O)c2ccccc2)CC1)c1cccc(C)n1] | > 50 | 0 | – | –
43 | Cc1oc2ccccc2c1CNC(=O)N1CCC(C)(CO)CC1 [C167, Cc1oc2ccccc2c1CNC(=O)N1CCC(C)(CO)CC1] | > 50 | 0 | – | –
44 | CC1(C)CC(NC(=O)c2cc(O)c3ccccc3c2)C(C)(C)O1 (stereo not shown) [C178, CC1(C)CC(NC(=O)c2cc(O)c3ccccc3c2)C(C)(C)O1] | > 50 | 0 | – | –
